Values quoted from earlier work in PMC3606899 (Journal of molecular medicine (Berlin, Germany), 2012).

Target: PHD2 (Homo sapiens, UniProt Q9GZT9)
Assay: PHD inhibitor screen, IC50
Assay type: biochemical

Sequence of PHD2 (Q9GZT9 2-426): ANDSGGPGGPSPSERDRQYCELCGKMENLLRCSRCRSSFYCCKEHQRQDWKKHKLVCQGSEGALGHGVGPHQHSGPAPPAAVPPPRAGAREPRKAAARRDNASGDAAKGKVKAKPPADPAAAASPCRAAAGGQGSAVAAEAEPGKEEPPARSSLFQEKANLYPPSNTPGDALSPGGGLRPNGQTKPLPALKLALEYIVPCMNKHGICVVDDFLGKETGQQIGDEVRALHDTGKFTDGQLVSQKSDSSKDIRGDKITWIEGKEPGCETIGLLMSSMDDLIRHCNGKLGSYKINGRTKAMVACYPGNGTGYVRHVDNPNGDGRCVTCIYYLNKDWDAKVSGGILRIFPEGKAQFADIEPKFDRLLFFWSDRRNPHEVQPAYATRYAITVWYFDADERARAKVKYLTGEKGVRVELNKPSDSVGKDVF

## AKB-4924
  IC50: 14 µM
